From DBAASP
In brackets after ≈: the same amount, converted by molar mass. Several values for one entry are separate records, joined by “and”; a condition that tells them apart may be missing. Identical values can stand only once.

Experiments:
Experiment in all cases: ≥ marks a high value that may be exact or a test limit, other limits are often not marked, values filed in µg/mL are converted to µM
Escherichia coli 55B5 = tested on: Escherichia coli 55B5
Staphylococcus aureus = tested on: Staphylococcus aureus
Salmonella typhimurium = tested on: Salmonella typhimurium
Pseudomonas aeruginosa = tested on: Pseudomonas aeruginosa
Escherichia coli UB1005 = tested on: Escherichia coli UB1005
[1] = tested on: Staphylococcus aureus ATCC 25923
[2] = tested on: Enterococcus faecalis 981
Serratia rubidaea X01 = tested on: Serratia rubidaea X01
[3] = tested on: Psychrobacter faecalis X29
[4] = tested on: Rhodococcus rhodochrous X15
[5] = tested on: Staphylococcus carnosus KHS
[6] = tested on: Bacillus licheniformis X39
[7] = tested on: Escherichia coli ATCC 25922
[8] = tested on: Staphylococcus aureus ATCC 33591
[9] = tested on: Staphylococcus aureus 930918-3
Chaetomium globosum = tested on: Chaetomium globosum
Bacillus pumilus = tested on: Bacillus pumilus
[10] = tested on: Sphingobacterium siyangense
Bacillus subtilis = tested on: Bacillus subtilis
[11] = tested on: Acinetobacter baumannii Ab5755
[12] = tested on: Staphylococcus aureus Sa1390
[13] = tested on: Staphylococcus aureus 08032706
[14] = tested on: Staphylococcus aureus ATCC 2592
[15] = tested on: Saccharibacillus kuerlensis
[16] = tested on: Acinetobacter baumannii Ab1408
[17] = tested on: Salmonella enterica subsp. enterica serovar Typhi
Serratia marcescens MA = tested on: Serratia marcescens MA
Escherichia coli Ec513 = tested on: Escherichia coli Ec513
[18] = tested on: Salmonella typhimurium CMCC 50013
[19] = tested on: Staphylococcus aureus 08A875
[20] = tested on: Staphylococcus aureus 08031013
Bacillus cereus = tested on: Bacillus cereus
[21] = tested on: Acinetobacter calcoaceticus
[22] = tested on: Pseudomonas aeruginosa ATCC 27853
Enterococcus faecium = tested on: Enterococcus faecium
Escherichia coli = tested on: Escherichia coli
Aspergillus nidulans = tested on: Aspergillus nidulans
[23] = tested on: Staphylococcus aureus 08032712
[24] = tested on: Aspergillus terreus GIM 3.34
[25] = tested on: Staphylococcus aureus 08032810
Escherichia coli K-12 = tested on: Escherichia coli K-12
[26] = tested on: Pseudomonas aeruginosa Pa1409
[27] = tested on: Pseudomonas aeruginosa Pa4216
[28] = tested on: Salmonella enterica subsp. enterica serovar Enteritidis CMCC 50041
[29] = tested on: Candida albicans ATCC 2002
Pseudomonas luteola = tested on: Pseudomonas luteola
[30] = tested on: Salmonella enterica subsp. enterica serovar Choleraesuis CMCC 50020
[31] = tested on: Staphylococcus epidermidis ATCC 12228
Escherichia coli K88 = tested on: Escherichia coli K88
[32] = tested on: Staphylococcus aureus 08A865
[33] = tested on: Staphylococcus aureus 08031002
Escherichia coli O78 = tested on: Escherichia coli O78
[34] = tested on: Acinetobacter baumannii Ab5753
Serratia marcescens SA = tested on: Serratia marcescens SA

CC[C@H](C)[C@H](NC(=O)[C@H](C)N)C(=O)N[C@@H](Cc1cnc[nH]1)C(=O)N[C@@H](CC(N)=O)C(=O)N[C@@H](CC(C)C)C(=O)N[C@@H](C)C(=O)N[C@@H](Cc1cnc[nH]1)C(=O)N[C@@H](CCCCN)C(=O)N[C@@H](CC(C)C)C(=O)N[C@@H](CC(C)C)C(=O)N[C@@H](CCCCN)C(=O)N[C@@H](CCCCN)C(=O)N[C@@H](CC(C)C)C(=O)N[C@H](C(=O)N[C@@H](CCCN=C(N)N)C(=O)N[C@@H](C)C(=O)N[C@H](C(=O)N[C@@H](CCCCN)C(=O)N[C@@H](CCCCN)C(=O)N[C@@H](CC(C)C)C(=O)N[C@@H](C)C(=O)N[C@@H](CC(N)=O)C(=O)O)C(C)C)[C@@H](C)O [AIHNLAHKLLKKLTRAVKKLAN]
MIC (Escherichia coli 55B5): 1.8 µM (≈ 4.47 µg/mL) | MIC (Staphylococcus aureus): 55 µM (≈ 136 µg/mL) | MIC (Salmonella typhimurium): 4.8 µM (≈ 11.9 µg/mL) | MIC (Pseudomonas aeruginosa): 3 µM (≈ 7.44 µg/mL) | MIC (Escherichia coli UB1005): 2.1 µM (≈ 5.21 µg/mL)

CC[C@H](C)[C@H](NC(=O)[C@H](CC(C)C)NC(=O)[C@@H](NC(=O)[C@@H]1CCCN1C(=O)[C@@H](NC(=O)[C@@H](NC(=O)[C@H](CC(N)=O)NC(=O)[C@H](CO)NC(=O)[C@H](C)NC(=O)[C@@H](NC(=O)[C@H](CC(N)=O)NC(=O)[C@H](CC(C)C)NC(=O)[C@H](CC(C)C)NC(=O)[C@@H](NC(=O)[C@H](CO)NC(=O)[C@H](CC(C)C)NC(=O)[C@@H](N)Cc1ccccc1)[C@@H](C)O)C(C)C)C(C)C)C(C)C)[C@@H](C)O)C(=O)N[C@H]1CSSC[C@@H](C(=O)O)NC(=O)[C@H](CCCCN)NC(=O)[C@H](CCCCN)NC(=O)[C@H]([C@@H](C)O)NC(=O)[C@H]([C@@H](C)CC)NC(=O)[C@H](CCCCN)NC1=O [FLSTLLNVASNVVPTLICKITKKC]
MIC [1]: 19 µM (≈ 49.5 µg/mL) | MIC [2]: ≥ 75 µM | MIC (Serratia rubidaea X01): 9 µM (≈ 23.4 µg/mL) | MIC [3]: 4.5 µM (≈ 11.7 µg/mL) | MIC [4]: 2.3 µM (≈ 5.99 µg/mL) | MIC [5]: 19 µM (≈ 49.5 µg/mL) | MIC [6]: 9 µM (≈ 23.4 µg/mL) | MIC [7]: 150 µM (≈ 391 µg/mL)

CC[C@H](C)[C@H](NC(=O)[C@H](CCCCN)NC(=O)[C@H](CCCCN)NC(=O)[C@H](CC(C)C)NC(=O)[C@H](CCCCN)NC(=O)[C@H](CCC(=O)O)NC(=O)[C@H](CCCCN)NC(=O)[C@@H](NC(=O)[C@H](CCCCN)NC(=O)[C@H](CC(N)=O)NC(=O)[C@H](CCCN=C(N)N)NC(=O)[C@H](Cc1ccccc1)NC(=O)[C@H](CCCCN)NC(=O)[C@@H](N)CCCN=C(N)N)[C@@H](C)CC)C(=O)NCC(=O)O [RKFRNKIKEKLKKIG]
MIC [8]: ≥ 130 µM | MIC [9]: 0.95 µM and 1.17 µM

CC[C@H](C)[C@H](NC(=O)[C@@H](NC(=O)[C@H](CCCN=C(N)N)NC(=O)[C@@H]1CCCN1C(=O)[C@H](CCCCN)NC(=O)[C@H](CCCCN)NC(=O)[C@H](Cc1ccccc1)NC(=O)[C@H](Cc1ccccc1)NC(=O)[C@H](CCC(=O)O)NC(=O)[C@H](CCCCN)NC(=O)[C@H](C)NC(=O)[C@H](CCCN=C(N)N)NC(=O)[C@H](CCCCN)NC(=O)[C@H](CCCCN)NC(=O)[C@@H](NC(=O)[C@H](CO)NC(=O)[C@H](CCCCN)NC(=O)[C@H](CCCCN)NC(=O)[C@H](CC(C)C)NC(=O)[C@H](CCCCN)NC(=O)[C@H](CCCN=C(N)N)NC(=O)[C@H](Cc1ccccc1)NC(=O)[C@H](Cc1ccccc1)NC(=O)[C@@H](N)CCCCN)C(C)C)C(C)C)C(=O)NCC(=O)N[C@H](C(=O)N[C@@H](CO)C(=O)N[C@H](C(=O)N1CCC[C@H]1C(=O)N[C@@H](Cc1ccccc1)C(=O)O)[C@@H](C)CC)C(C)C [KFFRKLKKSVKKRAKEFFKKPRVIGVSIPF]
MIC [1]: 1.1 µM (≈ 4 µg/mL) | MIC (Chaetomium globosum): 10.3 µM (≈ 37.5 µg/mL) | MIC (Bacillus pumilus): 2.58 µM (≈ 9.4 µg/mL) | MIC [10]: 2.58 µM (≈ 9.4 µg/mL) | MIC (Bacillus subtilis): 2.58 µM (≈ 9.4 µg/mL) | MIC [11]: 1.1 µM (≈ 4 µg/mL) | MIC [12]: ≥ 35.2 µM | MIC [13]: 27.5 µM (≈ 100 µg/mL) | MIC [14]: 1.29 µM and 0.66 µM | MIC [15]: 1.29 µM (≈ 4.7 µg/mL) | MIC [16]: 4.4 µM (≈ 16 µg/mL) | MIC [17]: 0.33 µM (≈ 1.2 µg/mL) | MIC (Serratia marcescens MA): ≥ 110 µM | MIC (Escherichia coli Ec513): 2.2 µM (≈ 8 µg/mL) | MIC [18]: 1.1 µM (≈ 4 µg/mL) | MIC [19]: 20.6 µM (≈ 75 µg/mL) | MIC [20]: 27.5 µM (≈ 100 µg/mL) | MIC (Bacillus cereus): 0.33 µM (≈ 1.2 µg/mL) | MIC [21]: 0.632 µM (≈ 2.3 µg/mL) | MIC [22]: 0.33 µM and > 0.165 µM | MIC (Enterococcus faecium): ≥ 41.2 µM | MIC (Escherichia coli): 0.323 µM (≈ 1.17 µg/mL) | MIC (Aspergillus nidulans): 5.14 µM (≈ 18.7 µg/mL) | MIC [23]: 27.5 µM (≈ 100 µg/mL) | MIC [24]: 5.14 µM (≈ 18.7 µg/mL) | MIC [25]: 27.5 µM (≈ 100 µg/mL) | MIC (Escherichia coli K-12): 0.275 µM (≈ 1 µg/mL) | MIC [26]: 2.2 µM (≈ 8 µg/mL) | MIC (Pseudomonas aeruginosa): 3.64 µM (≈ 13.3 µg/mL) | MIC [27]: 1.1 µM (≈ 4 µg/mL) | MIC [28]: 1.1 µM (≈ 4 µg/mL) | MIC [29]: 1.29 µM and 0.66 µM | MIC (Pseudomonas luteola): 0.33 µM (≈ 1.2 µg/mL) | MIC [30]: 0.55 µM (≈ 2 µg/mL) | MIC [31]: 2.2 µM (≈ 8 µg/mL) | MIC (Escherichia coli K88): 1.1 µM (≈ 4 µg/mL) | MIC [7]: 0.632 µM (≈ 2.3 µg/mL) | MIC [32]: ≥ 110 µM | MIC [33]: 27.5 µM (≈ 100 µg/mL) | MIC (Escherichia coli O78): 4.4 µM (≈ 16 µg/mL) | MIC [34]: 4.4 µM (≈ 16 µg/mL) | MIC (Serratia marcescens SA): ≥ 110 µM
